Assays:
[1] = test system: AMPA mediated transmission; assay: In vitro hippocampus slice population spike with Fluorowillardine alone or together with alkaloids; format: cell-based, rat; conditions: isolated alkaloids; mean of 3 slices; FIG. 7
Description: Four important alkaloids contained in Zembrin® namely, mesembrenone, mesembrenol, mesembrine and mesembranol, were individually isolated. Similar tests to those described in example A were carried out on each of these isolated alkaloids, in the presence of two concentrations in the nanomolar range and the results are illustrated in FIGS. 5 to 7. In FIG. 5, the statistical significance of p<0.01 is marked by stars. In FIG. 6, the statistical significance of p<0.01 is marked by stars. In FIG. 7, mean values of 3 slices are depicted for each recording condition. Statistical significance between Fluorowillardine alone and the presence of the alkaloids is documented by stars. (**=p<0.05; ***=p<0.01).

[2] = test system: pyramidal cell activity in hippocampus slices; assay: In vitro hippocampus slice population spike in presence of isolated alkaloids; format: cell-based, rat; conditions: for attenuation of population spike amplitude, single shock stimuli / attenuation of population spike amplitude, theta burst stimuli: two concentrations in the nanomolar range; for attenuation of population spike amplitude, single shock stimuli: FIG. 5; for attenuation of population spike amplitude, theta burst stimuli: FIG. 6
Source text: Electric stimulation of Schaffer Collaterals leads to release of glutamate resulting in excitation of the postsynaptic pyramidal cells. The result of the electric stimulation can be recorded as so-called population spike (pop-spike). The amplitude of the resulting population spike represents the number of recruited pyramidal cells. The model of hippocampal pyramidal cell activity reflects the effects of physiological interventions by an increase or decrease of the amplitude of the population spike.
Hippocampus slices were obtained from 19 adult male Sprague-Dawlay rats (Charles River Wiga, Sulzbach, Germany). Rats were kept under a reversed day/night cycle for 2 weeks prior to the start of the experiments to allow recording of in vitro activity from slices during the active phase of their circadian rhythm (Dimpfel, W., Dalhoff, B., Hofmann, W., Schlüter, G. (1994) Electrically evoked potentials in the rat hippocampus slice in the presence of aminophylline alone and in combination with quinolones (European Neuropsychopharmacology, 4, 151-156).
Preparation of the slices was performed exactly as reported earlier (Dimpfel, W. and Hoffmann, J. A. (2011) Effects of rasagiline, its metabolite aminoindan and selegiline on glutamate receptor mediated signalling in the rat hippocampus slice in vitro (BMC Pharmacology, 11, 2)). Animals were exsanguinated under ether anaesthesia; the brain was removed in total and the hippocampal formation was isolated under microstereoscopic sight. The midsection of the hippocampus was fixed to the table of a vibrating microtome (Rhema Labortechnik, Hofheim, Germany) using a cyanoacrylate adhesive, submerged in chilled bicarbonate-buffered saline (artificial cerebrospinal fluid (ACSF): NaCl: 124 mM, KCl: 5 mM, CaCl2: 2 mM, MgSO4: 2 mM, NaHCO3: 26 mM, glucose: 10 mM, and cut into slices of 400μ thickness. All slices were pre-incubated for at least 1 h in Carbogen saturated ACSF (pH 7.4) in a pre-chamber before use (Dimpfel, W., Spüler, M., Dalhoff, A., Hoffmann, W., Schlüter, G. (1991) Hippocampal activity in the presence of quinolones and fenbufen in-vitro (Antimicrobial Agents and Chemotherapy, 35, 1142-1146).
During the experiment the slices were held and treated in a special superfusion chamber (List Electronics, Darmstadt, Germany) according to (Haas, H L., Schaerer, B., Vosmansky, M. (1979). A simple perfusion chamber for the study of nervous tissue slices in vitro (J Neurosci Methods, 1, 323-5), at 35° C. (Schiff, S J., Somjen, G G. (1985) The Effects of Temperature on Synaptic Transmission in Hippocampal Tissue Slices (Brain Research, 345, 279-284)). The preparation was superfused with ACSF at 180-230 ml/h. Electric stimulation (200 μA constant current pulses of 200 μs pulse width) of the Schaffer Collaterals within the […] area and recording of extracellular field potentials from the pyramidal cell layer of CA1 (Dimpfel, W., Spüler, M., Dalhoff, A., Hoffmann, W., Schlüter, G. (1991) Hippocampal activity in the presence of quinolones and fenbufen in-vitro (Antimicrobial Agents and Chemotherapy, 35, 1142-1146).
Measurements were performed at 10 min intervals to avoid potentiation mechanisms. Four stimulations—each 20 seconds apart—were averaged for each time point. After obtaining three stable responses to single stimuli (SS) long-term potentiation was induced by applying a theta burst type pattern (TBS). […]

Compound	interaction with AMPA mediated transmission (population spike with Fluorowillardine alone or with alkaloid) [1]	attenuation of population spike amplitude, single shock stimuli [2]	attenuation of population spike amplitude, theta burst stimuli [2]	concentration exerting a similar extent of attenuation of population spike amplitude ([2]; FIGS. 5 and 6)
COc1ccc(C23CCC(O)CC2N(C)CC3)cc1OC (stereo not shown) [mesembranol]	interact with AMPA mediated transmission	stronger attenuation	stronger attenuation	
COc1ccc(C23C=CC(O)CC2N(C)CC3)cc1OC (stereo not shown) [mesembrenol]	interact with AMPA mediated transmission	stronger attenuation	stronger attenuation	
COc1ccc([C@@]23CCC(=O)C[C@@H]2N(C)CC3)cc1OC [mesembrine, reference compound]				8.65 nM

Source: patent publication US12059404B2, “Mesembrenol and/or mesembranol for prophylaxis and treatment of patients suffering from epilepsy and associated diseases” (HG&H Pharmaceuticals (Pty) Ltd, priority 2017, dated 2024)
